Data from patent US20100247503A1, “METHOD FOR OBTAINING A SOLID COMPOSITION WITH RHODOTORULA MINUTA, WHICH IS EFFECTIVE FOR THE BIOLOGICAL CONTROL OF ANTHRACNOSE, AND RESULTING COMPOSITION” (priority 2006, published 2010).

Experiments:
Assay type in all cases: in vivo
[1] = tested on: Colletotrichum gloeosporioides; assay: Field tests with liquid compositions, pre-harvest application, severity of anthracnose on mango fruit; details: mango cv. Kent, five monthly pre-harvest sprays, fruit stored 15 days at 20° C., 85% RH, R. minuta 10^8, B. subtilis 10^6, mix 10^6+10^4 UFC/mL, Benomyl 0.5 g/L
Description: (§1) Application of treatments in the field. To verify field effectiveness we used an eight-year old commercial mango orchard cv. Kent, located in El Rosario, Sinaloa, Mexico. We selected the trees homogeneously to distribute them for each treatment (three trees per treatment). In each treatment there was a monthly application (five in total), using a backpack pump sprinkler operated at 400 pounds of pressure. We started during flowering (February) until the harvest (June or July), spraying suspensions of fresh or dried cells (previously hydrated), produced in semi-industrial fermenters. We sprayed 7 L of cell suspension on each selected mango tree, until all the foliage was wet. As a control treatment, we sprayed 7 L of irrigation water.
(§2) Quantifying the severity of anthracnose. For each treatment, 100 mango fruits were harvested at physiological maturity (Báez et al., 1993), and were stored under simulated marketing conditions at 20° C. and 85% relative humidity. We evaluated the severity of the disease after a minimum of 15 days of storage, using the presence of symptoms as indicator of the disease (anthracnose) in the fruit. […]
(§3) Statistical analysis. The study of the severity of the disease in mango fruits was analyzed using a completely randomized block design. […] The difference between treatments was determined by the Tukey test (p=0.05). […]

[2] = tested on: mango fruit (Mangifera indica) cv. Kent; assay: Assessing the quality of the fruit (weight loss, pH, titratable acidity, total soluble solids) during storage; details: 85% RH
Experimental: Assessing the quality of the fruit. Weight loss was assessed every third day by difference in weight with respect to the initial weight of the fruit, expressed as a percentage (Diaz-Pérez, 1998). The pH, titratable acidity (TA) and total soluble solids (TSS) were quantified according to the methodology proposed by the AOAC (1998) at 0, 6 and 12 days of storage. To determine the pH and acidity we used a Mettler automatic titrator (model DL-21) and the results were expressed in units of pH and percentage of citric acid, respectively. Total soluble solids were determined with a Leica Abbe Mark II type refractometer, temperature-compensated and previously calibrated with pure water. The results were expressed in Brix degrees (°Brix). For quality parameters, a fruit was selected as an experimental unit and five replications were used.
Statistical analysis. The study of the severity of the disease in mango fruits was analyzed using a completely randomized block design. Data from the evaluations of each treatment were subjected to unilateral variance analysis by Friedman ranges (p<0.05) using the SAS statistical system (SAS, 1998). The difference between treatments was determined by the Tukey test (p=0.05). For differences in the analysis of variance (ANOVA) of quality variables, the mediums were separated by Tukey multiple comparison test with a probability of error of 5%, using the Minitab statistical program version 13.1.
The same compositions presented in table 2 were used to study the effect of the application of biological control agents, subject of this invention, on the quality of mango fruit cv. Kent.

[3] = tested on: Colletotrichum gloeosporioides; assay: Field tests with solid dry compositions, pre-harvest application, severity of anthracnose on mango fruit; details: mango cv. Kent, mix 10^6+10^4 UFC/mL, Benomyl 0.5 g/L
Description: as §1, §2, §3

SMILES: CCCCNC(=O)n1c(NC(=O)OC)nc2ccccc21 [Benomyl]
- % of severity after 15 days of storage [1]: 41.7 b %
- % of severity after 15 days of storage ([1]; listed as chemical treatment): 41.7%
- Weight loss (%) ([2]; day 3 of storage at 20° C.): 0.9 a %
- Weight loss (%) ([2]; day 6 of storage at 20° C.): 1.6 a %
- Weight loss (%) ([2]; day 9 of storage at 20° C.): 2.4 ab %
- Weight loss (%) ([2]; day 12 of storage at 20° C.): 3.4 ab %
- Weight loss (%) ([2]; day 15 of storage at 20° C.): 4.3 a %
- Weight loss (%) ([2]; day 15 of storage at 20° C., listed as chemical treatment): 4.3%
- % severity [3]: 25.0 b %
- % severity ([3]; listed as chemical treatment): 36.2%
